Here are results for 31 molecules from patent publication US20120122928A1 (priority 2010, published 2012).

Marks after values point to notes of the source that are not given here.

The test system of data set [1] is Plasmopara viticola. Nature of the data set: Plasmopara test (grapevine) / protective. In kind it is in vivo. As to conditions: young grapevine plants sprayed, active ingredient concentration 10 ppm; evaluation 6 days after inoculation; 100% = no infection. The method, then: Plasmopara Test (Grapevine)/Protective
To produce an appropriate active ingredient formulation, 1 part by weight of active ingredient is mixed with the specified amounts of solvent and emulsifier, and the concentrate is diluted with water to the desired concentration.
To test for protective efficacy, young plants are sprayed with the active ingredient formulation at the stated application rate. After the spray coating has dried on, the plants are inoculated with an aqueous spore suspension of Plasmopara viticola and then remain in an incubation cabin at approx. 20° C. and 100% relative air humidity for 1 day. Subsequently, the plants are placed in a greenhouse at approx. 21° C. and approx. 90% air humidity for 4 days. The plants are then moistened and placed in an incubation cabin for 1 day.
Evaluation follows 6 days after the inoculation. 0% means an efficacy which corresponds to that of the control, whereas an efficacy of 100% means that no infection is observed.
In this test, the following inventive compounds show, at an active ingredient concentration of 10 ppm, an efficacy of 70% or more: […]

Data set [2] relates to Phytophthora infestans. In kind it is in vivo. As to conditions: young tomato plants sprayed, active ingredient concentration of 100 (unit not given); inoculated 1 day after treatment; evaluation 7 days after inoculation; 100% = no infection.
The conditions of data set [3]: LC-MS determination in the acidic range, pH 2.7, 0.1% aqueous formic acid and acetonitrile.
Data set [4] deals with Peronospora brassicae. Nature of the data set: Peronospora test (oilseed rape seeds) / seed treatment. In kind it is in vivo. As to conditions: dose 50 g/dt, 14-day-old plants inoculated, incubated 7 days, infected leaf area, 100% = no disease. Here is the method: Peronospora Test (Oilseed Rape Seeds)/Seed Treatment
The test was conducted under greenhouse conditions.
Oilseed rape seeds treated with an inventive active compound or a combination of inventive active compounds dissolved in N-methyl-2-pyrrolidone and diluted with water to the desired dose were sown in 6*6 cm vessels. The vessels contain 4 cm of a 1:1 mixture of steam-treated field soil and sand. The plants grew at 10° C.
14-day-old plants were inoculated with an aqueous spore suspension of Peronospora brassicae. The vessels containing the plants were incubated in a greenhouse at a temperature of 15° C. and a relative air humidity of 100% for 7 days.
The assessment of the test included the evaluation of the infected leaf area per plant. 0% means an efficiency corresponding to that of the control, while an efficiency of 100% means that no disease is observed.

The nature of data set [5]: physchem. As to conditions: pH 2.7.

With `O=C(Cn1nc(C(F)F)cc1C(F)F)N1CCC(c2nc(C3=NOC(COc4ccccc4F)C3)cs2)CC1` (stereo not shown) [I-3], the entries for the “% eff.” value in data set [1], in data set [2] and in data set [4] were 100%, 100% and 98%, respectively. Besides, in data set [3], the “Log P [a]” value worked out at 3.19.

A word on the chromatographic logP: it is lipophilicity estimated from chromatographic retention. A higher chromatographic logP goes with a more lipophilic compound. As for `COC(c1ccccc1)C1CC(c2csc(C3(F)CCN(C(=O)Cn4nc(C(F)F)cc4C(F)F)CC3)n2)=NO1` (stereo not shown) [I-15, 2-[3,5-Bis(difluoromethyl)-1H-pyrazol-1-yl]-1-[4-fluoro-4-(4-{5-[methoxy(phenyl)methyl]-4,5-dihydro-1,2-oxazol-3-yl}-1,3-thiazol-2-yl)piperidin-1-yl]ethanone], the “% eff.” value in data set [2] stood at 95%. Further, the chromatographic logP in data set [5] came to 3.56.

With `O=C(Nc1cc(C(F)F)ccc1C(F)F)N1CCC(c2nc(C3=NOC(C(F)(F)c4ccccc4)C3)cs2)CC1` (stereo not shown) [I-16, N-[2,5-Bis(difluoromethyl)phenyl]-4-(4-{5-[difluoro(phenyl)methyl]-4,5-dihydro-1,2-oxazol-3-yl}-1,3-thiazol-2-yl)piperidine-1-carboxamide], the “% eff.” value stood at 87% in data set [1] and 100% in data set [2]. The chromatographic logP in data set [5] worked out at 3.64.

As for `FC(F)c1cc(C(F)F)n(CC(=S)N2CCC(c3nc(C4=NOC(C(F)(F)c5ccccc5)C4)cs3)CC2)n1` (stereo not shown) [I-31, 2-[3,5-Bis(difluoromethyl)-1H-pyrazol-1-yl]-1-[4-(4-{5-[difluoro(phenyl)methyl]-4,5-dihydro-1,2-oxazol-3-yl}-1,3-thiazol-2-yl)piperidin-1-yl]ethanethione], the “% eff.” value was 85% in data set [1] and 100% in data set [2]. In addition, the chromatographic logP in data set [5] is 3.88.

In the case of `O=C(Cn1nc(C(F)F)cc1C(F)F)N1CCC(c2nc(C3=NOC(COc4c(Br)cccc4Br)C3)cs2)CC1` (stereo not shown) [I-36], the “% eff.” value in data set [1] stood at 100%; in data set [2] it was 100%; in data set [4] it was 78%. Besides, in data set [3], the “Log P [a]” value is 3.9.

Regarding `C[Si](C)(c1ccccc1)C1CC(c2csc(C3CCN(C(=O)Cn4nc(C(F)F)cc4C(F)F)CC3)n2)=NO1` (stereo not shown) [I-40], the figures for the “% eff.” value in data set [1] and in data set [2] were 92% and 100%, respectively. Moreover, the “Log P [a]” value in data set [3] was 4.01.

In the case of `Cc1ccc(C)c(NC(=O)N2CCC(c3nc(C4=NOC(COc5ccccc5)C4)cs3)CC2)c1` (stereo not shown) [I-41], the results for the “% eff.” value in data set [1] and in data set [2] were 94% and 100%, respectively. In data set [3], the “Log P [a]” value is reported as 3.36.

In the case of `Fc1cccc(F)c1C(F)(F)C1CC(c2csc(C3CCN(C(=S)Cn4nc(C(F)F)cc4C(F)F)CC3)n2)=NO1` (stereo not shown) [I-42], the figures for the “% eff.” value in data set [1] and in data set [2] were 100% and 95%, respectively. For the same molecule, the “Log P [a]” value in data set [3] is 3.94^[a].

For the molecule `O=C(Cn1nc(C(F)F)cc1C(F)F)N1CCC(c2nc(-c3cc(COc4ccccc4)on3)cs2)CC1` [I-44], the entries for the “% eff.” value in data set [1] and in data set [2] were 100% and 95%, respectively. The “Log P [a]” value in data set [3] stood at 3.63.

As to `Cc1cc(C(F)F)nn1CC(=O)N1CCC(c2nc(C3=NOC(COc4c(Cl)cccc4Cl)C3)cs2)CC1` (stereo not shown) [I-45], the “% eff.” value worked out at 100% in data set [1] and 93% in data set [2]. The “Log P [a]” value in data set [3] came out at 3.35.

For the molecule `Cc1cc(C(F)(F)F)nn1CC(=O)N1CCC(c2nc(C3=NOC(COc4c(F)cccc4Cl)C3)cs2)CC1` (stereo not shown) [I-46], the “% eff.” value is 98% in data set [1] and 95% in data set [2]. In data set [3], the “Log P [a]” value came to 3.54.

With `CC(O)(c1c(F)cccc1F)C1CC(c2csc(C3CCN(C(=O)Cn4nc(C(F)F)cc4C(F)F)CC3)n2)=NO1` (stereo not shown) [I-47], the figures for the “% eff.” value in data set [1] and in data set [2] were 95% and 93%, respectively. Also, the “Log P [a]” value in data set [3] came to 3.03.

On to `Cc1ccc(Cl)cc1NC(=O)N1CCC(c2nc(C3=NOC(COc4c(F)cccc4F)C3)cs2)CC1` (stereo not shown) [I-50], for which the results for the “% eff.” value in data set [1] and in data set [2] were 97% and 92%, respectively. The “Log P [a]” value in data set [3] worked out at 3.66.

Take `Cc1ccc(Cl)cc1NC(=O)N1CCC(c2nc(C3=NOC(COc4c(F)cccc4Cl)C3)cs2)CC1` (stereo not shown) [I-51]: the results for the “% eff.” value in data set [1] and in data set [2] were 93% and 95%, respectively. In addition, in data set [3], the “Log P [a]” value amounted to 3.81.

For `Cc1cc(C(F)(F)F)nn1CC(=O)N1CCC(c2nc(C3=NOC(COc4c(F)cccc4F)C3)cs2)CC1` (stereo not shown) [I-54], the results for the “% eff.” value in data set [1] and in data set [2] were 97% and 100%, respectively. In addition, the “Log P [a]” value in data set [3] stood at 3.34.

In the case of `O=C(Cn1nc(C(F)F)cc1C(F)F)N1CCC(c2nc(C3=NOC(CSc4ccccc4F)C3)cs2)CC1` (stereo not shown) [I-55], the entries for the “% eff.” value in data set [1] and in data set [2] were 100% and 94%, respectively. The “Log P [a]” value in data set [3] is on record as 3.54.

On to `Cc1ccc(C)c(NC(=O)N2CCC(c3nc(C4=NOC(COc5c(Cl)cccc5Cl)C4)cs3)CC2)c1` (stereo not shown) [I-56], for which the “% eff.” value in data set [1] amounted to 100%; in data set [2] it was 94%. In addition, the “Log P [a]” value in data set [3] turned out to be 3.89.

For `O=C(Cn1nc(C(F)F)cc1C(F)F)N1CCC(c2nc(C3=NOC(C(F)(F)c4cccs4)C3)cs2)CC1` (stereo not shown) [I-57], the “% eff.” value in data set [1] was determined as 100%; in data set [2], 95%. In data set [3], the “Log P [a]” value was 3.33^[a].

With `O=C(Cn1nc(C(F)F)cc1C(F)F)N1CCC(c2nc(C3=NOC(CSc4c(Cl)cccc4Cl)C3)cs2)CC1` (stereo not shown) [I-58], the “% eff.” value is 100% in data set [1] and 94% in data set [2]. The “Log P [a]” value in data set [3] was found to be 3.99.

For `Cc1ccc(Cl)cc1NC(=O)N1CCC(c2nc(C3=NOC(COc4c(Cl)cccc4Cl)C3)cs2)CC1` (stereo not shown) [I-59], the “% eff.” value in data set [1] came to 100%; in data set [2], 94%. The “Log P [a]” value in data set [3] was 4.08^[a]; 4.08^[b].

In the case of `O=C(Cn1nc(C(F)F)cc1C(F)F)N1CCC(c2nc(C3=NOC(CSc4ccccc4Cl)C3)cs2)CC1` (stereo not shown) [I-61], the “% eff.” value in data set [1] came to 93%; in data set [2], 91%. In data set [3], the “Log P [a]” value is given as 3.68.

For `Cc1cc(C(F)(F)F)nn1CC(=O)N1CCC(c2nc(C3=NOC(C(C)(C)c4c(F)cccc4F)C3)cs2)CC1` (stereo not shown) [I-62], the “% eff.” value is reported as 96% in data set [1] and 91% in data set [2]. In data set [3], the “Log P [a]” value is reported as 4.09.

In the case of `O=C(Cn1nc(C(F)F)cc1C(F)F)N1CCC(c2nc(C3=NOC(CSc4ccccc4Br)C3)cs2)CC1` (stereo not shown) [I-63], the “% eff.” value is 96% in data set [1] and 91% in data set [2]. In addition, in data set [3], the “Log P [a]” value turned out to be 3.72.

Consider `Cc1cc(C(F)(F)F)nn1CC(=O)N1CCC(c2nc(C3=NOC(COc4c(Cl)cccc4Cl)C3)cs2)CC1` (stereo not shown) [I-65], for which the “% eff.” value in data set [1] worked out at 100%; in data set [2], 84%. Further, the “Log P [a]” value in data set [3] was determined as 3.9.

For `CC(C)(c1c(F)cccc1F)C1CC(c2csc(C3CCN(C(=O)Cn4nc(C(F)F)cc4C(F)F)CC3)n2)=NO1` (stereo not shown) [I-66], the “% eff.” value in data set [1] worked out at 100%; in data set [2], 94%. Further, the “Log P [a]” value in data set [3] is 4.05.

With `Cc1cc(C(F)(F)F)nn1CC(=O)N1CCC(c2nc(C3=NOC(C(C)(C)c4c(F)cccc4Cl)C3)cs2)CC1` (stereo not shown) [I-67], the “% eff.” value in data set [1] turned out to be 100%; in data set [2], 94%. Besides, in data set [3], the “Log P [a]” value was 4.43.

As to `CC(C)(c1c(F)cccc1F)C1CC(c2csc(C3CCN(C(=O)Nc4cc(C(F)F)ccc4C(F)F)CC3)n2)=NO1` (stereo not shown) [I-68], the “% eff.” value in data set [1] amounted to 96%; in data set [2], 94%. For the same molecule, in data set [3], the “Log P [a]” value worked out at 4.29.

For `CC(C)(c1c(F)cccc1Cl)C1CC(c2csc(C3CCN(C(=O)Cn4nc(C(F)F)cc4C(F)F)CC3)n2)=NO1` (stereo not shown) [I-69], the “% eff.” value in data set [1] came to 95%; in data set [2], 94%. The “Log P [a]” value in data set [3] is 4.32.

For the molecule `O=C(Cn1nc(C(F)F)cc1C(F)F)N1CCC(c2nc(C3=NOC(COc4ccccc4Cl)C3)cs2)CC1` (stereo not shown) [I-71], the “% eff.” value in data set [1] and in data set [2] was 100% each time. Further, the “Log P [a]” value in data set [3] stood at 3.35.

Regarding `COc1cccc(C=O)c1OCC1CC(c2csc(C3CCN(C(=O)Cn4nc(C(F)F)cc4C(F)F)CC3)n2)=NO1` (stereo not shown) [I-72], the entries for the “% eff.” value in data set [1] and in data set [2] were 81% and 95%, respectively. Moreover, in data set [3], the “Log P [a]” value stood at 3.02.

`O=C(Cn1nc(C(F)F)cc1C(F)F)N1CCC(c2nc(C3=NOC(COc4c(F)cccc4Cl)C3)cs2)CC1` (stereo not shown) [I-74]: the “% eff.” value in data set [1] and in data set [2] was 100% throughout. Further, the “Log P [a]” value in data set [3] is reported as 3.44.
